Laboratory results taken from the supplement of paper PMC10307832.

Columns and labels:
Assay in all cases: relative viability (nuclei count vs DMSO), 5 days (fraction); higher = more cells survive
[1] = compound: O=C(O)c1ccc2c(c1)nc(Nc1cccc(Cl)c1)c1ccncc12 [Silmitasertib] + Nc1ncn([C@H]2C[C@H](O)[C@@H](CO)O2)c(=O)n1 [Decitabine] (partner 2 µM)
In short: (§1)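 Lung cancer cell lines in 1536-well plates were dosed by pin tool the day after seeding, either with one drug alone or with a fixed anchor-drug dose plus five library-drug doses (not always all listed) in √10 steps. After 5 days, cells were fixed and their nuclei stained in one step (final 0.05% Triton X-100, 1% formaldehyde, 1 ug/ml Hoechst), then counted on 4× images. Relative viability is the nuclei count in treated wells divided by that in vehicle wells. Values are medians of duplicate plates.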

[2] = compound: O=C(O)c1ccc2c(c1)nc(Nc1cccc(Cl)c1)c1ccncc12 [Silmitasertib] + Cc1nc(NC(=O)N2CCC[C@H]2C(N)=O)sc1-c1ccnc(C(C)(C)C(F)(F)F)c1 [Alpelisib] (partner 2 µM)
In short: as §1

[3] = compound: O=C(O)c1ccc2c(c1)nc(Nc1cccc(Cl)c1)c1ccncc12 [Silmitasertib] + O=C(CCCCCCC(=O)Nc1ccccc1)NO [Vorinostat] (partner 1 µM)
In short: as §1

Silmitasertib + Olaparib = compound: O=C(O)c1ccc2c(c1)nc(Nc1cccc(Cl)c1)c1ccncc12 [Silmitasertib] + O=C(c1cc(Cc2n[nH]c(=O)c3ccccc23)ccc1F)N1CCN(C(=O)C2CC2)CC1 [Olaparib] (partner 8 µM)
In short: as §1

[4] = compound: O=C(O)c1ccc2c(c1)nc(Nc1cccc(Cl)c1)c1ccncc12 [Silmitasertib] + Nc1nc2[nH]cc(CCc3ccc(C(=O)N[C@@H](CCC(=O)O)C(=O)O)cc3)c2c(=O)[nH]1 [Pemetrexed] (partner 0.2 µM)
In short: as §1

| Cell Line | relative viability ([1]; first compound 0.04 µM) | relative viability ([1]; first compound 0.4 µM) | relative viability ([1]; first compound 1.265 µM) | relative viability ([1]; first compound 4 µM) | relative viability ([2]; first compound 0.04 µM) | relative viability ([2]; first compound 0.4 µM) | relative viability ([2]; first compound 1.265 µM) | relative viability ([2]; first compound 4 µM) | relative viability ([3]; first compound 0.04 µM) | relative viability ([3]; first compound 0.4 µM) | relative viability ([3]; first compound 1.265 µM) | relative viability ([3]; first compound 4 µM) | relative viability (Silmitasertib + Olaparib; first compound 0.04 µM) | relative viability (Silmitasertib + Olaparib; first compound 0.4 µM) | relative viability (Silmitasertib + Olaparib; first compound 1.265 µM) | relative viability (Silmitasertib + Olaparib; first compound 4 µM) | relative viability ([4]; first compound 0.04 µM) | relative viability ([4]; first compound 0.4 µM) | relative viability ([4]; first compound 1.265 µM) | relative viability ([4]; first compound 4 µM) |
| --- | --- | --- | --- | --- | --- | --- | --- | --- | --- | --- | --- | --- | --- | --- | --- | --- | --- | --- | --- | --- |
| PC-3 [JPC-3] | 0.968 | 0.846 | 0.836 | 0.723 | 1.02 | 0.79 | 1.01 | 1 | 0.815 | 0.706 | 0.833 | 0.436 | 1.22 | 0.737 | 1.12 | 1.13 | 1.18 | 0.919 | 1.15 | 0.6 |
| NCI-H596 | 0.909 | 1.05 | 1.05 | 0.785 | 0.47 | 0.429 | 0.382 | 0.444 | 0.768 | 0.616 | 0.611 | 0.375 | 0.659 | 0.597 | 0.685 | 0.654 | 0.523 | 0.502 | 0.54 | 0.472 |
| LCLC-97TM1 | 0.236 |  | 0.209 | 0.251 | 0.216 |  | 0.165 | 0.14 | 0.605 |  | 0.654 | 0.119 | 0.382 |  | 0.213 | 0.234 | 0.187 |  | 0.186 | 0.144 |
| NCI-H1993 | 0.544 | 0.494 | 0.552 | 0.514 | 0.662 | 0.602 | 0.617 | 0.688 | 0.911 | 0.553 | 0.659 | 0.514 | 1.24 | 0.804 | 0.96 | 0.831 | 0.616 | 0.524 | 0.598 | 0.505 |
| HARA | 0.698 | 0.554 | 0.494 | 0.355 | 1.08 | 0.64 | 0.565 | 0.545 | 0.627 | 0.301 | 0.464 | 0.416 | 1.25 | 0.595 | 0.634 | 0.276 | 0.268 | 0.215 | 0.213 | 0.235 |
| NCI-H460 | 0.551 | 0.511 | 0.478 | 0.363 | 0.488 | 0.512 | 0.466 | 0.421 | 0.722 | 0.747 | 0.668 | 0.842 | 0.387 | 0.269 | 0.553 | 0.575 | 0.0675 | 0.0541 | 0.0651 | 0.0575 |
| EKVX | 0.421 |  | 0.374 | 0.299 | 1.01 | 0.628 | 0.739 | 0.656 | 0.951 | 0.464 | 0.541 | 0.584 | 0.889 |  | 0.7 | 0.784 | 0.394 |  | 0.383 | 0.338 |
| NCI-H1755 | 0.715 | 0.735 | 0.735 | 0.762 | 0.981 | 0.912 | 0.908 | 0.987 | 0.756 | 0.633 | 0.526 | 0.72 | 0.892 | 0.783 | 0.858 | 1.01 | 0.422 | 0.489 | 0.383 | 0.386 |
| NCI-H1395 | 0.756 | 0.725 | 0.684 | 0.683 | 1.15 | 0.728 | 1.03 | 0.965 | 0.93 | 0.616 | 0.662 | 0.538 | 0.463 | 0.461 | 0.459 | 0.469 | 0.975 | 0.756 | 0.841 | 0.654 |
| NCI-H2087 | 0.414 | 0.286 | 0.181 | 0.199 | 1.08 | 0.811 | 0.76 | 0.386 | 0.669 | 0.506 | 0.672 | 0.589 | 0.614 | 0.217 | 0.465 | 0.38 | 0.604 | 0.64 | 0.665 | 0.542 |
| H3255 | 0.563 | 0.703 | 0.543 | 0.532 | 0.811 | 0.786 | 0.657 | 0.549 | 0.747 | 0.772 | 0.868 | 0.645 | 0.579 | 0.492 | 0.549 | 0.53 | 0.602 | 0.5 | 0.394 | 0.499 |
| SK-MES-1 | 0.396 | 0.382 | 0.328 | 0.209 | 0.87 | 0.896 | 0.788 | 0.446 | 1.21 | 0.876 | 0.8 | 0.297 | 0.777 | 0.623 | 0.289 | 0.207 | 1.03 | 1.02 | 0.763 | 0.339 |
| NCI-H23 | 0.353 | 0.256 | 0.255 | 0.245 | 0.762 |  | 0.67 | 0.547 | 0.6 | 0.281 | 0.545 | 0.165 | 0.351 | 0.217 | 0.272 | 0.251 | 0.779 | 0.389 | 0.57 | 0.303 |
| HCC-827 | 0.313 |  | 0.153 | 0.292 | 1.03 |  | 1.07 | 1.03 | 0.861 |  | 0.241 | 0.555 | 0.659 |  | 0.705 | 0.735 | 0.282 |  | 0.282 | 0.273 |
| HCC-78 | 0.64 | 0.603 | 0.381 | 0.613 | 0.417 | 0.243 | 0.268 | 0.319 | 0.459 | 0.421 | 0.402 | 0.437 | 0.92 | 0.42 | 0.509 | 0.734 | 0.91 | 0.886 | 0.613 | 0.918 |
| UMC-11 | 0.688 | 0.464 | 0.587 | 0.541 | 1.03 | 0.994 | 1 | 0.627 | 0.388 | 0.522 | 0.439 | 0.333 | 0.335 | 0.298 | 0.301 | 0.26 | 0.951 | 0.785 | 0.774 | 0.553 |
| NCI-H1975 | 0.455 |  | 0.277 | 0.401 | 0.683 | 0.532 | 0.589 | 0.468 | 0.766 |  | 0.687 | 0.69 | 0.818 |  | 0.658 | 0.832 | 0.294 |  | 0.287 | 0.219 |
